# Data published in patent publication US10294227B2, “Compounds” (UNIVERSITY COURT OF THE UNIVERSITY OF EDINBURGH, priority 2015, dated 2019).
# Read-outs that look alike come from different tables or passages of the source.
# Columns and labels:
# ABL = ABL (Homo sapiens (Human), UniProt P00519); test: Kinase screening assay (IC50); assay type: biochemical
# mTOR = mTOR (Homo sapiens (Human), UniProt P42345); test: Kinase screening assay (IC50); assay type: biochemical
# PDGFRa = PDGFRa (Homo sapiens (Human), UniProt P16234); test: Kinase screening assay (IC50); assay type: biochemical
# SRC = SRC (Homo sapiens (Human), UniProt P12931); test: Kinase screening assay (IC50); assay type: biochemical; conditions: for IC50: 10 μM ATP, read-out: Target inhibition (IC50) SRC
# KIT = KIT (Homo sapiens (Human), UniProt P10721); test: Kinase screening assay (IC50)
# RET = RET (Homo sapiens (Human), UniProt P07949); test: Kinase screening assay (IC50)
# BLK = BLK (Homo sapiens (Human), UniProt P51451); test: Kinase screening assay (IC50)
# FGR = FGR (Homo sapiens (Human), UniProt P09769); test: Kinase screening assay (IC50)
# FRK/PTK5 = FRK/PTK5 (Homo sapiens (Human), UniProt P42685); test: Kinase screening assay (IC50)
# FYN = FYN (Homo sapiens (Human), UniProt P06241); test: Kinase screening assay (IC50)
# HCK = HCK (Homo sapiens (Human), UniProt P08631); test: Kinase screening assay (IC50)
# LCK = LCK (Homo sapiens (Human), UniProt P06239); test: Kinase screening assay (IC50)
# LYN = LYN (Homo sapiens (Human), UniProt P07948); test: Kinase screening assay (IC50)
# YES = YES (Homo sapiens (Human), UniProt P07947); test: Kinase screening assay (IC50)
# [1] = Liver microsome stability; assay type: in vitro ADME; conditions: % of unmodified drug after 30 min incubation with liver microsomes
# CYP1A2 = CYP1A2 (Homo sapiens (Human), UniProt P05177); test: in vitro
# [2] = rat, serum
# CYP3A4 = CYP3A4 (Homo sapiens (Human), UniProt P08684); test: CYP P450 inhibition
# CYP2C9 = CYP2C9 (Homo sapiens (Human), UniProt P11712); test: CYP P450 inhibition
# CYP2D6 = CYP2D6 (Homo sapiens (Human), UniProt P10635); test: CYP P450 inhibition
# CYP2C19 = CYP2C19 (Homo sapiens (Human), UniProt P33261); test: CYP P450 inhibition
# [3] = human, serum
# hERG channel = hERG channel (Homo sapiens (Human), UniProt Q12809); test: hERG Safety Assay, Ionworks high-throughput electrophysiology
# MCF7 cells = test: Cell viability assay (PrestoBlue); assay type: cell-based; conditions: Homo sapiens, MCF7, 120 h; cell viability at day 5; read-out: Antiproliferative activity (EC50) MCF7
# MDA-MB-231 cells = test: Cell viability assay (PrestoBlue); assay type: cell-based; conditions: Homo sapiens, MDA-MB-231, 120 h, read-out: Antiproliferative activity (EC50) MDA-MB-231; cell viability at day 5
# [4] = system: SYF fibroblasts (deficient for Src, Yes, and Fyn); test: Cell viability assay (PrestoBlue); assay type: cell-based, murine; conditions: Mus musculus, Fibroblast, 120 h; cell viability at day 5; read-out: Antiproliferative activity (EC50) SYF (−/− Src)
# [5] = Stability in human plasma; assay type: in vitro ADME; conditions: % of unmodified drug after 120 min in plasma
# [6] = Stability in mouse plasma; assay type: in vitro ADME; conditions: % of unmodified drug after 120 min in plasma
# Stability in rat plasma = conditions: % of unmodified drug after 120 min in plasma
# [7] = PBS, aqueous buffer
# [8] = 10 μM ATP, read-out: Target inhibition (IC50) ABL
# [9] = 10 μM ATP, read-out: Target inhibition (IC50) mTOR
# [10] = 10 μM ATP, read-out: Target inhibition (IC50) PDGFRa
# [11] = read-out: Target inhibition (IC50) KIT, 10 μM ATP
# [12] = read-out: Target inhibition (IC50) RET, 10 μM ATP
# [13] = read-out: Target inhibition (IC50) BLK, 10 μM ATP
# [14] = read-out: Target inhibition (IC50) FGR, 10 μM ATP
# [15] = read-out: Target inhibition (IC50) FRK/PTK5, 10 μM ATP
# [16] = read-out: Target inhibition (IC50) FYN, 10 μM ATP
# [17] = read-out: Target inhibition (IC50) HCK, 10 μM ATP
# [18] = read-out: Target inhibition (IC50) LCK, 10 μM ATP
# [19] = read-out: Target inhibition (IC50) LYN, 10 μM ATP
# [20] = read-out: Target inhibition (IC50) YES, 10 μM ATP
# [21] = read-out: Kinase Screening (IC50) mTOR
# [22] = read-out: Kinase Screening (IC50) PDGFRa
# [23] = read-out: Kinase Screening (IC50) c-KIT
# [24] = read-out: Kinase Screening (IC50) RET
# [25] = read-out: Kinase Screening (IC50) BLK, Src Family
# [26] = read-out: Kinase Screening (IC50) FGR, Src Family
# [27] = read-out: Kinase Screening (IC50) FRK, Src Family
# [28] = read-out: Kinase Screening (IC50) FYN, Src Family
# [29] = read-out: Kinase Screening (IC50) HCK, Src Family
# [30] = read-out: Kinase Screening (IC50) LCK, Src Family
# [31] = read-out: Kinase Screening (IC50) LYN, Src Family
# KIT, sequence (P10721 26-976): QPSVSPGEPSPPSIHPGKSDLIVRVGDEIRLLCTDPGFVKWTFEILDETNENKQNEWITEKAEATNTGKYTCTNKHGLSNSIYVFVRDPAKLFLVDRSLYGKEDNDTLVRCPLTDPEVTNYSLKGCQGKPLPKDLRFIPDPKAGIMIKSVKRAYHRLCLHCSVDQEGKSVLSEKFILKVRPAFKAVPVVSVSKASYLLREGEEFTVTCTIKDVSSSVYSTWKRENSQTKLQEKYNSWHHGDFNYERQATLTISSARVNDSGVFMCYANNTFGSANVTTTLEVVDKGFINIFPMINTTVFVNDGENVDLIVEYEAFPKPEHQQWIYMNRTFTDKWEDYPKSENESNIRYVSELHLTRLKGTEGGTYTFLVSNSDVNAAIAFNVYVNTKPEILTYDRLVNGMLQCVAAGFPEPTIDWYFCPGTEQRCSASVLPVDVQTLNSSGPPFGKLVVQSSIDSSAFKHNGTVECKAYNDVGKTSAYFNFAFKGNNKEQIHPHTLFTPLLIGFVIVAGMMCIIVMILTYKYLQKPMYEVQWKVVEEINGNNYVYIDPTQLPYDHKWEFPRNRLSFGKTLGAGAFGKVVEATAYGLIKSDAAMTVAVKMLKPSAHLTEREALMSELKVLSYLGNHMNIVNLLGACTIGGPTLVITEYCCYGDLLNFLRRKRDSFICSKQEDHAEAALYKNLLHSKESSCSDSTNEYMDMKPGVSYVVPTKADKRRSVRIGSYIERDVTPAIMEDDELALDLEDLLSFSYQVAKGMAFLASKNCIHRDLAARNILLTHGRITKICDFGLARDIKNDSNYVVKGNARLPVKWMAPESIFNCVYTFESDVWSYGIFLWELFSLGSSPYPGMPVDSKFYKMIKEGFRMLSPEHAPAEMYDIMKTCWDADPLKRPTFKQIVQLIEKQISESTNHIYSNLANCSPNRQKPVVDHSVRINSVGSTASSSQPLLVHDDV
# HCK, sequence (P08631 whole entry): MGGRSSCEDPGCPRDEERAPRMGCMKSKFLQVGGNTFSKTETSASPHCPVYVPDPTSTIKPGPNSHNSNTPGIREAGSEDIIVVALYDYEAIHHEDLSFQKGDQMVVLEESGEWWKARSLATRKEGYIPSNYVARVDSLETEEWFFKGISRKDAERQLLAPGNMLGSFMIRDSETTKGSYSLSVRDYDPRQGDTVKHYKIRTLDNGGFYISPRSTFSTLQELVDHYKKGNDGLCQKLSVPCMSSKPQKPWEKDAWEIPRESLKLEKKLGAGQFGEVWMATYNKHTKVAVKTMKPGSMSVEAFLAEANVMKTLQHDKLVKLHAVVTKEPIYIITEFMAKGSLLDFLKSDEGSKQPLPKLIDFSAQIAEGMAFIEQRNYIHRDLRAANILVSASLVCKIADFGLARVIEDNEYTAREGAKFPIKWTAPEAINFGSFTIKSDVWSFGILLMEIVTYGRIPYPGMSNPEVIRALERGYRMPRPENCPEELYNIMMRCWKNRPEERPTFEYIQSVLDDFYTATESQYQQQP
# hERG channel, sequence (Q12809 whole entry): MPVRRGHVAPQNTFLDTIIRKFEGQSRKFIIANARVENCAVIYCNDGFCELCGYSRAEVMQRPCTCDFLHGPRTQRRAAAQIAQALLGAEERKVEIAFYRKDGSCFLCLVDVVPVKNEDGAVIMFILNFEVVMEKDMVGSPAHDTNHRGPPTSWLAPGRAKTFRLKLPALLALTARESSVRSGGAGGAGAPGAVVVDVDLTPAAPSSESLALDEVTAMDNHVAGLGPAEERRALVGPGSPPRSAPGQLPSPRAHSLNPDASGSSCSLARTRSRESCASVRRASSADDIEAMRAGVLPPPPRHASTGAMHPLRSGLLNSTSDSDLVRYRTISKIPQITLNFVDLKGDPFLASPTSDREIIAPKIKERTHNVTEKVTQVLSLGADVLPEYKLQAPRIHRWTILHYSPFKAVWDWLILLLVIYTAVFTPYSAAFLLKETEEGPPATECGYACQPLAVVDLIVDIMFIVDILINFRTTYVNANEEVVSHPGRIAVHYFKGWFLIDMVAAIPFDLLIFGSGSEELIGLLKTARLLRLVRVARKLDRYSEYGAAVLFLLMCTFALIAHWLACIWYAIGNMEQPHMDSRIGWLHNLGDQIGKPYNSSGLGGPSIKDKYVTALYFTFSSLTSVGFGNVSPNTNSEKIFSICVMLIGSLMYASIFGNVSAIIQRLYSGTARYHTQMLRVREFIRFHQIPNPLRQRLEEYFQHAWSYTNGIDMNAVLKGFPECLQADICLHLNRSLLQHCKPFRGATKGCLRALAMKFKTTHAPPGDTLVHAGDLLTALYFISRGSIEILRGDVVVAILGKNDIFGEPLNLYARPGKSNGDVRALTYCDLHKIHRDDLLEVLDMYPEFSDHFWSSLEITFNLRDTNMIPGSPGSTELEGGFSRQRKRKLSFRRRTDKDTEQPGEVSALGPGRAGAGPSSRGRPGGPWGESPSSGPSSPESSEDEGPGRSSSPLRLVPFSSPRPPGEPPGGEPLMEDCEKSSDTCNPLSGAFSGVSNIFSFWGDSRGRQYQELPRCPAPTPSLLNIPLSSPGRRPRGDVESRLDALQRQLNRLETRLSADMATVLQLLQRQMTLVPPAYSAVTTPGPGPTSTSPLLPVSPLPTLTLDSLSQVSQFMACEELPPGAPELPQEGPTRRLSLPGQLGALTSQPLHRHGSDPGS
# RET, sequence (P07949 29-1114): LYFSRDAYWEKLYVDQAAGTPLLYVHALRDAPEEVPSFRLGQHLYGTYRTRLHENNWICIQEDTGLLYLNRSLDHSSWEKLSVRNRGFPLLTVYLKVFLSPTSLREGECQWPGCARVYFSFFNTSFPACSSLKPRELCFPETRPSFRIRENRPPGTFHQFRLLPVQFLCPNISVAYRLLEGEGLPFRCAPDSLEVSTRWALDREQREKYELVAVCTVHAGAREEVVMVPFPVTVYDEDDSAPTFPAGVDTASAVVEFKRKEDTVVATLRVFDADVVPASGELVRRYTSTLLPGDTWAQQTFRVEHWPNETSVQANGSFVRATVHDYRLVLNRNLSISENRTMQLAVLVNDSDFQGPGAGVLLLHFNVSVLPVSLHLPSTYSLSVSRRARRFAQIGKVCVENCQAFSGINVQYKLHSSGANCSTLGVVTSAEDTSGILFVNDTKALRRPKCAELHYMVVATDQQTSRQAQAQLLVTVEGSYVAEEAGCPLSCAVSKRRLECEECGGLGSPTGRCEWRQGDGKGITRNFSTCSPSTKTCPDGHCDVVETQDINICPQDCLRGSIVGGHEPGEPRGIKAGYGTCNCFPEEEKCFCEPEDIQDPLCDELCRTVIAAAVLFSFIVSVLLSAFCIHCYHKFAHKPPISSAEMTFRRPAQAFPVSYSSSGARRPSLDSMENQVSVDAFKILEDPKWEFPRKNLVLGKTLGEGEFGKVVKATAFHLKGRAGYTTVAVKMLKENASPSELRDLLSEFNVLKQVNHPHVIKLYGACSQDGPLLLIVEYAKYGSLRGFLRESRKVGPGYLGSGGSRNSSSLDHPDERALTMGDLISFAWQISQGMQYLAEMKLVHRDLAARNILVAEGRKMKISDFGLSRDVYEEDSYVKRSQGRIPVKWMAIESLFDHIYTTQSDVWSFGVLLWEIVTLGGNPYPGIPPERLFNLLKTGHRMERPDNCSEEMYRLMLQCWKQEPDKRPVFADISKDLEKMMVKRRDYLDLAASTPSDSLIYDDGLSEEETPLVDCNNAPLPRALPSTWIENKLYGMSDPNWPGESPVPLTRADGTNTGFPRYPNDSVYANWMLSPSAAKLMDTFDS
# FGR, sequence (P09769 whole entry): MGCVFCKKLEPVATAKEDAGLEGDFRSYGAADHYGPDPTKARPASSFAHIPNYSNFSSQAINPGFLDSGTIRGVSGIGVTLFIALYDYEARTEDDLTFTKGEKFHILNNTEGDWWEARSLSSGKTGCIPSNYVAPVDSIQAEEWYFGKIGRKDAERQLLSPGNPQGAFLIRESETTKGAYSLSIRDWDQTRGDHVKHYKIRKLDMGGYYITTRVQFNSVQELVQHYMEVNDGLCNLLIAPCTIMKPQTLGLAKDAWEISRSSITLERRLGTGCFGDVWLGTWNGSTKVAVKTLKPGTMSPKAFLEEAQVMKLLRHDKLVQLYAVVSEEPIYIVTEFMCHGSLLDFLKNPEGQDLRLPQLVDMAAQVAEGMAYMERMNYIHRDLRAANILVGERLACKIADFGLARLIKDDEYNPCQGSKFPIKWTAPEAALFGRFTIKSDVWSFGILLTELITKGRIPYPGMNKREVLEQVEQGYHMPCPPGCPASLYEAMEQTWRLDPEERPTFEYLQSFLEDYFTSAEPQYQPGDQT
# YES, sequence (P07947 whole entry): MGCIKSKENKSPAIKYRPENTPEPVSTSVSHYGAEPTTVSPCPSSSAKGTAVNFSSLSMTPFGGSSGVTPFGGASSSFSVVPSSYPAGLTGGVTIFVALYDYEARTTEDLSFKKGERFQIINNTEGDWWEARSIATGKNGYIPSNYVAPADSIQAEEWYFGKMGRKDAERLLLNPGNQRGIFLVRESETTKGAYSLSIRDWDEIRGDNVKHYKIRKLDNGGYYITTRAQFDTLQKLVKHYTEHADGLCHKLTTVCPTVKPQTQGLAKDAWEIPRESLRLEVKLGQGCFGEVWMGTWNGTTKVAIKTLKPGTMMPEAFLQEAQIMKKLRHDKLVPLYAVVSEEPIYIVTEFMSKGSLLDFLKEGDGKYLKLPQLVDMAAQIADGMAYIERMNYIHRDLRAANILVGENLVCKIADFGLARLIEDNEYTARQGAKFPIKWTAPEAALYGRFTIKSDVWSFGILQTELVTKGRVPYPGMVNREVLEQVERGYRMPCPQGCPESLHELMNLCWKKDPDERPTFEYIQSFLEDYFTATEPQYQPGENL
SMILES,IC50 (ABL; [8]),IC50 (mTOR; [9]),IC50 (PDGFRa; [10]),IC50 (SRC),IC50 (KIT; [11]),IC50 (RET; [12]),IC50 (BLK; [13]),IC50 (FGR; [14]),IC50 (FRK/PTK5; [15]),IC50 (FYN),IC50 (FYN; [16]),IC50 (HCK; [17]),IC50 (LCK; [18]),IC50 (LYN; [19]),IC50 (YES; [20]),IC50 (mTOR; [21]),IC50 (PDGFRa; [22]),fraction unbound [3],IC50 (KIT; [23]),IC50 (RET; [24]),other results
"COc1cc(-c2nn(CCN3CCC(CN(C)C)CC3)c3ncnc(N)c23)ccc1NC(=O)OC(C)(C)C [Compound 503, tert-butyl N-[4-[4-amino-1-[2-[4-(dimethylaminomethyl)-1-piperidyl]ethyl]pyrazolo[3,4-d]pyrimidin-3-yl]-2-methoxy-phenyl]carbamate]",0.1 to 1 µM,> 1 µM,> 1 µM,< 0.01 µM,> 1 µM,> 1 µM,< 0.01 µM,< 0.01 µM,< 0.01 µM,0.0046 µM,< 0.01 µM,< 0.01 µM,< 0.01 µM,< 0.01 µM,< 0.01 µM,–,–,–,–,–,"IC50 (ABL; recombinant kinase, read-out: IC50 Abl): 0.189 µM; IC50 (mTOR; recombinant kinase, read-out: IC50 mTOR): > 10 µM; IC50 (PDGFRa; recombinant kinase, read-out: IC50 PDGFRα): > 10 µM; potency (IC50) against Src, in words (SRC): sub-nano molar; IC50 (KIT): 7.13 µM; IC50 (RET): > 10 µM; IC50 (YES): < 0.0005 µM; potency (IC50) against Yes, in words (YES): sub-nano molar"
"COc1cc(-c2nn(CCN3CCC(N4CCCC4)CC3)c3ncnc(N)c23)ccc1NC(=O)OC(C)(C)C [Compound 518, tert-butyl N-[4-[4-amino-1-[2-(4-pyrrolidin-1-yl-1-piperidyl)ethyl]pyrazolo[3,4-d]pyrimidin-3-yl]-2-methoxy-phenyl]carbamate]",–,> 1 µM,> 1 µM,–,> 1 µM,> 1 µM,< 0.01 µM,< 0.01 µM,< 0.01 µM,–,< 0.01 µM,< 0.01 µM,< 0.01 µM,< 0.01 µM,< 0.01 µM,> 1 µM,> 1 µM,0.172,> 1 µM,> 1 µM,"30 min Liver Microsome stability [1]: 87.0%; inhibition at 10 µM (CYP1A2): 6.9%; fraction unbound [2]: 0.134; inhibition at 10 µM (CYP3A4): -29.8%; inhibition at 10 µM (CYP2C9): -92.3%; inhibition at 10 µM (CYP2D6): 6.7%; inhibition at 10 µM (CYP2C19): -6.5%; IC50 (BLK; [25]): < 0.01 µM; IC50 (FGR; [26]): < 0.01 µM; IC50 (FRK/PTK5; [27]): < 0.01 µM; IC50 (FYN; [28]): < 0.01 µM; IC50 (HCK; [29]): < 0.01 µM; IC50 (LCK; [30]): < 0.01 µM; IC50 (LYN; [31]): < 0.01 µM; IC50 (YES; read-out: Kinase Screening (IC50) YES, Src Family): < 0.01 µM; IC50 (hERG channel): 20.1 µM"
"COc1cc(-c2nn(CCN3CCC(N4CCCCC4)CC3)c3ncnc(N)c23)ccc1NC(=O)OC(C)(C)C [Compound 519, tert-butyl N-[4-[4-amino-1-[2-[4-(1-piperidyl)-1-piperidyl]ethyl]pyrazolo[3,4-d]pyrimidin-3-yl]-2-methoxy-phenyl]carbamate]",–,> 1 µM,> 1 µM,–,> 1 µM,> 1 µM,< 0.01 µM,< 0.01 µM,< 0.01 µM,–,< 0.01 µM,< 0.01 µM,< 0.01 µM,< 0.01 µM,–,> 1 µM,> 1 µM,0.143,> 1 µM,> 1 µM,inhibition at 10 µM (CYP1A2): -1.6%; fraction unbound [2]: 0.106; inhibition at 10 µM (CYP3A4): -12.1%; inhibition at 10 µM (CYP2C9): -70.3%; inhibition at 10 µM (CYP2D6): 3%; inhibition at 10 µM (CYP2C19): -3.1%; IC50 (BLK; [25]): < 0.01 µM; IC50 (FGR; [26]): < 0.01 µM; IC50 (FRK/PTK5; [27]): < 0.01 µM; IC50 (FYN; [28]): < 0.01 µM; IC50 (HCK; [29]): < 0.01 µM; IC50 (LCK; [30]): < 0.01 µM; IC50 (LYN; [31]): < 0.01 µM; IC50 (hERG channel): 12.6 µM
"CN(C)C1CCN(CCn2nc(-c3cccc(NC(=O)OC(C)(C)C)c3)c3c(N)ncnc32)CC1 [Compound 542, tert-butyl N-[3-[4-amino-1-[2-[4-(dimethylamino)-1-piperidyl]ethyl]pyrazolo[3,4-d]pyrimidin-3-yl]phenyl]carbamate]",–,–,–,–,–,–,–,–,–,–,–,–,–,–,–,–,–,–,–,–,EC50 (MCF7 cells): > 10 µM; EC50 (MDA-MB-231 cells): > 10 µM; EC50 [4]: > 10 µM
CN(C)C1CCN(CCn2nc(-c3ccc(NC(=O)OC(C)(C)C)cc3)c3c(N)ncnc32)CC1 [Compound 543],> 1 µM,> 1 µM,> 1 µM,0.01 to 0.1 µM,> 1 µM,> 1 µM,–,< 0.01 µM,–,0.1 to 1 µM,–,–,–,–,< 0.01 µM,–,–,–,–,–,IC50 (LCK): 0.01 to 0.1 µM
"CN(C)C1CCN(CCn2nc(-c3ccc(CC(=O)OC(C)(C)C)cc3)c3c(N)ncnc32)CC1 [Compound 553, tert-butyl 2-[4-[4-amino-1-[2-[4-(dimethylamino)-1-piperidyl]ethyl]pyrazolo[3,4-d]pyrimidin-3-yl]phenyl]acetate]",–,> 1 µM,> 1 µM,–,> 1 µM,> 1 µM,–,< 0.01 µM,–,–,< 0.01 µM,–,< 0.01 µM,< 0.01 µM,–,> 1 µM,> 1 µM,–,> 1 µM,> 1 µM,Stability in human plasma [5]: 98.3%; Stability in mouse plasma [6]: 70.4%; Stability in rat plasma (Stability in rat plasma): 68.2%; IC50 (FGR; [26]): < 0.01 µM; IC50 (FYN; [28]): < 0.01 µM; IC50 (LCK; [30]): < 0.01 µM; IC50 (LYN; [31]): < 0.01 µM; IC50 (hERG channel): 12.6 µM
"COc1cc(-c2nn(CCN3CCC(N(C)C)CC3)c3ncnc(N)c23)ccc1Cc1ncc(C)o1 [Compound 584, 1-[2-[4-(dimethylamino)-1-piperidyl]ethyl]-3-[3-methoxy-4-[(5-methyloxazol-2-yl)methyl]phenyl]pyrazolo[3,4-d]pyrimidin-4-amine]",> 1 µM,> 1 µM,> 1 µM,0.01 to 0.1 µM,> 1 µM,> 1 µM,–,< 0.01 µM,–,0.1 to 1 µM,–,–,< 0.01 µM,–,< 0.01 µM,–,–,–,–,–,–
"Cc1nc(Nc2ncc(C(=O)Nc3c(C)cccc3Cl)s2)cc(N2CCN(CCO)CC2)n1 [Dasatinib, reference compound]",–,–,–,–,–,–,–,–,–,–,–,–,–,–,–,–,–,0.06,–,–,solubility [7]: < 100 µg/mL
"COc1ccc([C@@H]2Sc3ccccc3N(CCN(C)C)C(=O)[C@@H]2OC(C)=O)cc1 [Diltiazem, reference compound]",–,–,–,–,–,–,–,–,–,–,–,–,–,–,–,–,–,–,–,–,Stability in rat plasma (Stability in rat plasma): 21.5%
"CC1CC(OC(=O)C(O)c2ccccc2)CC(C)(C)N1C (centres unmarked) [Eucatropine, reference compound]",–,–,–,–,–,–,–,–,–,–,–,–,–,–,–,–,–,–,–,–,Stability in human plasma [5]: 10.5%; Stability in mouse plasma [6]: 20.3%
